Experimental data reported in paper PMC9317966, “Structure-function analysis of the AMPK activator SC4 and identification of a potent pan AMPK activator” (Biochemical Journal, 2022).

Columns and labels:
Type in all cases: biochemical
human GST-AMPK α2β1γ1 = target: T1, human GST-AMPK α2β1γ1 (Homo sapiens, UniProt P54646+Q9Y478); experiment: Radiolabel SAMS kinase assay, GST-AMPK from HEK293T/17 cells immobilised on glutathione-Sepharose; conditions: for Max. fold activation: immobilised α2β1γ1; for EC50: immobilised α2β1γ1, 0–30 µM activator
T1 construct: triply transfected with full-length AMPK α1 or α2 (NH2-terminal GST fusion, pDEST27 vector); full-length AMPK α1 or α2 (NH2-terminal GST fusion, pDEST27 vector), β1 or β2 (COOH-terminal FLAG fusion, pcDNA3.1 vector); FLAG (C); made in house; host or cells: HEK293T/17 cells, transient triple transfection
T1 sequence (P54646 whole entry, the tested form may be a part): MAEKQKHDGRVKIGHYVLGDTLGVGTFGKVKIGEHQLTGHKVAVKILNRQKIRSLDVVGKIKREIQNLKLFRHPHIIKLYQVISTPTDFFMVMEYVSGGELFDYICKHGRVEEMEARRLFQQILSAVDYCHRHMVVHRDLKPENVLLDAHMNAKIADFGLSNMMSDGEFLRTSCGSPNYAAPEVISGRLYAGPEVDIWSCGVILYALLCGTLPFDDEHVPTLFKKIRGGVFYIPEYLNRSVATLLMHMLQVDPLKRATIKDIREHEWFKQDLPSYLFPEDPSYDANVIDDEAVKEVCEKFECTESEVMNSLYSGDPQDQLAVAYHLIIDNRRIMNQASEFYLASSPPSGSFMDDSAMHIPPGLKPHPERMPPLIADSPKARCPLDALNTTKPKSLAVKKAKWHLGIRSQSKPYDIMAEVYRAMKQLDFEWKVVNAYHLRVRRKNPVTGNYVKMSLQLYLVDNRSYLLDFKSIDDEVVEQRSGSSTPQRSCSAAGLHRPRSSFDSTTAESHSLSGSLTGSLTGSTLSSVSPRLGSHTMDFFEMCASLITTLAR
T1 sequence (Q9Y478 whole entry, the tested form may be a part): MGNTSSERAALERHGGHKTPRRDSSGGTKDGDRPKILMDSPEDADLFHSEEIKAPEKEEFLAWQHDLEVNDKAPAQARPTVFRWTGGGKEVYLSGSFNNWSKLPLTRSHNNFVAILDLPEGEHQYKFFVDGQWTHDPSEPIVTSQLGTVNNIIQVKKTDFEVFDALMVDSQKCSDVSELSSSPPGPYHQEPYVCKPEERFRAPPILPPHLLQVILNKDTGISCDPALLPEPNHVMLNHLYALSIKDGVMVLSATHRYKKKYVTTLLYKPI
T1 sequence (P54619 whole entry partner, the tested form may be a part): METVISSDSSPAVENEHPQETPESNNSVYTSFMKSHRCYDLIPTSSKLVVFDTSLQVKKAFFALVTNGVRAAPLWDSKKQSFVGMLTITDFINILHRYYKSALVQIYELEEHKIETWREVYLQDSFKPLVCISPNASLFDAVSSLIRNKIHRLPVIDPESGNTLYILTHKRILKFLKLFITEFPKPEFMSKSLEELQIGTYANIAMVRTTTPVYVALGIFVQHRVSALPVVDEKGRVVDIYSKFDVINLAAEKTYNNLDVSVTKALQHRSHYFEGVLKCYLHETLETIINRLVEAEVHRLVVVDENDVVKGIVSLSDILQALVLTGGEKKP

human GST-AMPK α1β2γ1 = target: T2, human GST-AMPK α1β2γ1 (Homo sapiens, UniProt O43741+Q13131); experiment: as above; conditions: for Max. fold activation: immobilised α1β2γ1; for EC50: immobilised α1β2γ1, 0–30 µM activator
T2 construct: triply transfected with full-length AMPK α1 or α2 (NH2-terminal GST fusion, pDEST27 vector); full-length AMPK α1 or α2 (NH2-terminal GST fusion, pDEST27 vector), β1 or β2 (COOH-terminal FLAG fusion, pcDNA3.1 vector); FLAG (C); made in house; host or cells: HEK293T/17 cells, transient triple transfection
T2 sequence (Q13131 whole entry, the tested form may be a part): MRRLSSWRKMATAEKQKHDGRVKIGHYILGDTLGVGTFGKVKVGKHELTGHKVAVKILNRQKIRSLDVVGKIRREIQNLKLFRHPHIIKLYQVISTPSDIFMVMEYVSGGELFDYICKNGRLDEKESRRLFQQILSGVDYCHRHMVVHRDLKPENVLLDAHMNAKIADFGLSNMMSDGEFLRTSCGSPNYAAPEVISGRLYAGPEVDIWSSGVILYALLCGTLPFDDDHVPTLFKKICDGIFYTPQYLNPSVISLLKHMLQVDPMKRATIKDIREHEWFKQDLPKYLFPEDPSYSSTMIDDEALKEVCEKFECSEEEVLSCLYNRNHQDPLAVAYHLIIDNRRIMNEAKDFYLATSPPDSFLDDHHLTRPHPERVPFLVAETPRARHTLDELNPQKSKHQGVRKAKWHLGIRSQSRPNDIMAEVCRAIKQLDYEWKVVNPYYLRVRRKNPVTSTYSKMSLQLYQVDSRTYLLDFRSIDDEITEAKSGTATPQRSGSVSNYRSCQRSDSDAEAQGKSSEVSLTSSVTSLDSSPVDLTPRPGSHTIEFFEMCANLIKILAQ
T2 sequence (O43741 whole entry, the tested form may be a part): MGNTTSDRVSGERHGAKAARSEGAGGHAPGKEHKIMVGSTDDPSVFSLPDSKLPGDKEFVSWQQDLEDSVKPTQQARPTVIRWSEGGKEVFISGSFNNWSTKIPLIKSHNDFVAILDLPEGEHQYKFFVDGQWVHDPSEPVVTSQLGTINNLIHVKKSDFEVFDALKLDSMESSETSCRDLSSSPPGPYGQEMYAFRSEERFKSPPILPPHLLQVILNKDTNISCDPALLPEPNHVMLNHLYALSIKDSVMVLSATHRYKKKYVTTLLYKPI
T2 sequence (P54619 whole entry partner, the tested form may be a part): as the sequence (P54619 whole entry partner, the tested form may be a part) above

human GST-AMPK α2β2γ1 = target: T3, human GST-AMPK α2β2γ1 (Homo sapiens, UniProt O43741+P54646); experiment: as above; conditions: for Max. fold activation: immobilised α2β2γ1; for EC50: immobilised α2β2γ1, 0–30 µM activator
T3 construct: triply transfected with full-length AMPK α1 or α2 (NH2-terminal GST fusion, pDEST27 vector); full-length AMPK α1 or α2 (NH2-terminal GST fusion, pDEST27 vector), β1 or β2 (COOH-terminal FLAG fusion, pcDNA3.1 vector); FLAG (C); made in house; host or cells: HEK293T/17 cells, transient triple transfection
T3 sequence (P54646 whole entry, the tested form may be a part): as the sequence (P54646 whole entry, the tested form may be a part) above
T3 sequence (O43741 whole entry, the tested form may be a part): as the sequence (O43741 whole entry, the tested form may be a part) above
T3 sequence (P54619 whole entry partner, the tested form may be a part): as the sequence (P54619 whole entry partner, the tested form may be a part) above

[1] = target: T4, E. coli-expressed His-α2β1γ1 AMPK (Homo sapiens, UniProt P54646+Q9Y478); experiment: In solution SAMS kinase assay, E. coli-expressed myristoylated His-α2β1γ1, CaMKK2-treated; conditions: for EC50 / Max. fold activation: E. coli-expressed α2β1γ1, CaMKK2-treated; for sensitivity to activation relative to immobilised GST-α2β1γ1 from HEK293T/17 cells: His-tagged myristoylated α2β1γ1, E. coli, CaMKK2-treated
T4 construct: Recombinant full-length AMPK 6xHisα2β1γ1 was expressed in E. coli Rosetta 2 (DE3); made in house; host or cells: E. coli Rosetta 2 (DE3)
T4 sequence (P54646 whole entry): as the sequence (P54646 whole entry, the tested form may be a part) above
T4 sequence (Q9Y478 whole entry): as the sequence (Q9Y478 whole entry, the tested form may be a part) above
T4 sequence (P54619 whole entry partner): as the sequence (P54619 whole entry partner, the tested form may be a part) above
Excerpt: We directly compared in vitro potencies of pan activators by performing radiolabel kinase assays with γ1AMPK complexes. Initially, we used GST-tagged γ1AMPK expressed in HEK293T/17 cells and immobilised on glutathione-Sepharose (Figure 2 and Table 2). […] These assays used AMPK purified from Sf9 insect cells or E. coli that was pre-treated with CaMKK2. […] However, relative to immobilised GST-α2β1γ1 from HEK293T/17 cells, His-tagged and myristoylated α2β1γ1 AMPK (expressed in E. coli, CaMKK2-treated and assayed in solution) was at least 10-fold more sensitive to activation by both MK-8722 and MSG011 (Supplementary Figure S3B), indicating the GST-affinity tag or CaMKK2 treatment may exert some influence on sensitivity to these activators.
Recombinant full-length AMPK 6xHisα2β1γ1 was expressed in E. coli Rosetta 2 (DE3) (Merck Millipore) after double-transformation of pET-Duet-1 (α and γ subunits) and pCOLA (β subunit) vectors. Expression cultures were grown at 37°C in Luria-Bertani broth supplemented with 100 µg ml^−1 ampicillin and 50 µg ml^−1 kanamycin. Cultures shaking at 120 rpm in PYREX 2800 ml Fernbach-style culture flasks with baffles (Corning) were grown to an optical density (OD600) of 3.0 before induction with 500 µM isopropyl-β-D-1-thiogalactopyranoside (IPTG; Gold Biotechnology) and incubation overnight at 16°C. Cell pellets were resuspended in lysis buffer (50 mM TRIS pH 7.6, 500 mM NaCl, 5% (v/v) glycerol, 50 mM imidazole, 2 mM β-mercaptoethanol, 0.01 mM leupeptin, 0.1 mM AEBSF, 0.5 mM benzamidine hydrochloride), lysed using a precooled EmulsiFlex-C5 homogeniser (Avestin) and clarified via centrifugation (16 000g, 30 min, 4°C). Supernatant was passed through a HisTrap HP 5 ml Ni^2+ column (GE Healthcare) at 1 ml min^−1. The column was washed with 10 column volumes of chilled Ni^2+ column buffer (50 mM TRIS pH 7.6, 500 mM NaCl, 10% (v/v) glycerol, 50 mM imidazole, 2 mM β-mercaptoethanol) before elution with Ni^2+ column buffer supplemented with 400 mM imidazole. Proteinaceous fractions were then separated on a HiLoad 16/600 Superdex 200 gel filtration column (GE Healthcare) pre-equilibrated with size exclusion column buffer (SEC buffer; 50 mM TRIS pH 8.0, 150 mM NaCl, 2 mM tris(2-carboxyethyl) phosphine (TCEP)). AMPK containing fractions were pooled and concentrated to ∼2 mg ml^−1 using Amicon centrifugal filter units (Merck Millipore) prior to CaMKK2 treatment.
To phosphorylate AMPK, purified protein was incubated in the presence of 0.5 mM ATP, 0.5 mM AMP, 2.5 mM MgCl2 (Merck Millipore), SEC buffer and purified CaMKK2 (1 : 2500 mass ratio of CaMKK2:AMPK; for 1 h at 22°C with gentle rolling. The phosphorylation reaction was terminated by directly loading onto a HiLoad 16/600 Superdex 200 gel filtration column pre-equilibrated with SEC buffer. Protein was either assayed or concentrated to ∼10 mg ml^−1 using Amicon centrifugal filter units and flash frozen in L-N2 and stored at −80°C. The purified AMPK was analysed by ToF-MS and sample purity confirmed by SDS–PAGE.
AMPK activity was determined by phosphorylation of the SAMS peptide (Purar Chemicals, sequence: NH2-HMRSAMSGLHLVKRR-COOH) in a 25 µl reaction volume containing 100 µM SAMS peptide, 5 mM MgCl2, 200 µM ATP, [γ-^32P]-ATP (PerkinElmer) and assay buffer (50 mM HEPES pH 7.4, 1 mM DTT and 0.02% (v/v) Tween-20) and purified AMPK. Phosphotransferase activity was conducted at 30°C for 10 min and reactions were quenched by spotting 15 µl onto phosphocellulose ion-exchange chromatography paper (made in-house), followed by repeated washes in 1% H3PO4 (Merck Millipore). Ultima Gold liquid scintillation fluid (5 ml; PerkinElmer) was added to vials containing dried phosphocellulose papers, and the level of ^32P-transfer to the SAMS peptide was determined using a Tri-Carb 2900TR liquid scintillation counter (PerkinElmer).
⍺1β1γ1 – in solution E. coli-expressed ⍺2β1γ1
log [compound] (M) log [compound] (M)
Compound EC (nM) Max. fold Compound EC50 (nM) Max. fold […]

Row | Structure (SMILES) | Max. fold activation (human GST-AMPK α2β1γ1) | EC50 (human GST-AMPK α2β1γ1) | Max. fold activation (human GST-AMPK α1β2γ1) | EC50 (human GST-AMPK α1β2γ1) | Max. fold activation (human GST-AMPK α2β2γ1) | EC50 (human GST-AMPK α2β2γ1) | EC50 [1] | Max. fold activation [1] | sensitivity to activation relative to immobilised GST-α2β1γ1 from HEK293T/17 cells [1]
1 | O[C@@H]1CO[C@H]2[C@@H]1OC[C@H]2Oc1nc2nc(-c3ccc(-c4ccccc4)cc3)c(Cl)cc2[nH]1 [MK-8722, reference compound] | 7.8 fold | 3250 nM | 4.4 fold | 2180 nM | 5.8 fold | 5600 nM | 334 nM | 3.6 fold | at least 10 fold
2 | CC(=O)NC1CC=C(c2ccc(-c3nc4nc(Oc5ccc(C)c(C(=O)O)c5)[nH]c4cc3Cl)cc2)CC1 (stereo not drawn) [MSG011, 5-((5-(4′-Acetamido-2′,3′,4′,5′-tetrahydro-[1,1′-biphenyl]-4-yl)-6-chloro-1H-imidazo[4,5-b]pyridin-2-yl)oxy)-2-methylbenzoic acid] | 7.5 fold | 553 nM | 2.3 fold | 249 nM | 4.0 fold | 473 nM | 32.6 nM | 5.5 fold | at least 10 fold
